The text below walks through data of ChEMBL document CHEMBL1143959, “Synthesis and structure-affinity relationships of novel spirocyclic sigma receptor ligands with furopyrazole structure” (Bioorg Med Chem, 2008).

Assay [1] is described as follows: Displacement of [3H]ditolylguanidine from sigma 2 […] receptor in rat liver.
The species named for assay [2] is Rattus norvegicus. Put plainly: Displacement of [3H]ditolylguanidine from sigma 2 […] receptor in rat liver at 1 uM.
Assay [3] concerns the target Sodium-dependent serotonin transporter (Homo sapiens, UniProt P31645). Put plainly: Inhibition of 5HTT receptor.
Assay [4] in a line: Inhibition of adrenergic alpha 1 receptor.
Assay [5] in a line: Displacement of [3H]MK-801 from NMDA receptor at 1 uM.
The target of assay [6] is Sigma non-opioid intracellular receptor 1 (Cavia porcellus, UniProt Q60492). Nature of the assay: Displacement of [3H](+)-pentazocine from sigma 1 opioid receptor in guinea pig brain membrane. It is filed as cell membranes.
The nature of assay [7]: Inhibition of adrenergic alpha 2 receptor.
The target in assay [8] is T1, 5-hydroxytryptamine receptor 1A (Homo sapiens, UniProt P08908).
T1 sequence (P08908 whole entry): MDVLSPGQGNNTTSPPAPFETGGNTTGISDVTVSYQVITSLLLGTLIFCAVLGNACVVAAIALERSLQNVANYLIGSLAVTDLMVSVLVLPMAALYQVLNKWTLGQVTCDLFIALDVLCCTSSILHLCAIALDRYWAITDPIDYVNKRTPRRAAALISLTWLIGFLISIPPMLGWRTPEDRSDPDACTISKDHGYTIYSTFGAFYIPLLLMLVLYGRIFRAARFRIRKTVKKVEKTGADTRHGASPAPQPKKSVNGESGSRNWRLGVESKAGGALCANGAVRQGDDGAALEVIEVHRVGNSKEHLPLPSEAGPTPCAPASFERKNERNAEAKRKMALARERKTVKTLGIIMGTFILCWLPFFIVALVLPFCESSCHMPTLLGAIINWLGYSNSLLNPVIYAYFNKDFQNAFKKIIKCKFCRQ
Put plainly: Inhibition of 5HT1A receptor.

Assay [9] addresses Voltage-gated inwardly rectifying potassium channel KCNH2 (Homo sapiens, UniProt Q12809). Put plainly: Inhibition of human ERG channel.

pIC50, pKi: −log10 of the molar value.

Chain of Voltage-gated inwardly rectifying potassium channel KCNH2 (Q12809 whole entry): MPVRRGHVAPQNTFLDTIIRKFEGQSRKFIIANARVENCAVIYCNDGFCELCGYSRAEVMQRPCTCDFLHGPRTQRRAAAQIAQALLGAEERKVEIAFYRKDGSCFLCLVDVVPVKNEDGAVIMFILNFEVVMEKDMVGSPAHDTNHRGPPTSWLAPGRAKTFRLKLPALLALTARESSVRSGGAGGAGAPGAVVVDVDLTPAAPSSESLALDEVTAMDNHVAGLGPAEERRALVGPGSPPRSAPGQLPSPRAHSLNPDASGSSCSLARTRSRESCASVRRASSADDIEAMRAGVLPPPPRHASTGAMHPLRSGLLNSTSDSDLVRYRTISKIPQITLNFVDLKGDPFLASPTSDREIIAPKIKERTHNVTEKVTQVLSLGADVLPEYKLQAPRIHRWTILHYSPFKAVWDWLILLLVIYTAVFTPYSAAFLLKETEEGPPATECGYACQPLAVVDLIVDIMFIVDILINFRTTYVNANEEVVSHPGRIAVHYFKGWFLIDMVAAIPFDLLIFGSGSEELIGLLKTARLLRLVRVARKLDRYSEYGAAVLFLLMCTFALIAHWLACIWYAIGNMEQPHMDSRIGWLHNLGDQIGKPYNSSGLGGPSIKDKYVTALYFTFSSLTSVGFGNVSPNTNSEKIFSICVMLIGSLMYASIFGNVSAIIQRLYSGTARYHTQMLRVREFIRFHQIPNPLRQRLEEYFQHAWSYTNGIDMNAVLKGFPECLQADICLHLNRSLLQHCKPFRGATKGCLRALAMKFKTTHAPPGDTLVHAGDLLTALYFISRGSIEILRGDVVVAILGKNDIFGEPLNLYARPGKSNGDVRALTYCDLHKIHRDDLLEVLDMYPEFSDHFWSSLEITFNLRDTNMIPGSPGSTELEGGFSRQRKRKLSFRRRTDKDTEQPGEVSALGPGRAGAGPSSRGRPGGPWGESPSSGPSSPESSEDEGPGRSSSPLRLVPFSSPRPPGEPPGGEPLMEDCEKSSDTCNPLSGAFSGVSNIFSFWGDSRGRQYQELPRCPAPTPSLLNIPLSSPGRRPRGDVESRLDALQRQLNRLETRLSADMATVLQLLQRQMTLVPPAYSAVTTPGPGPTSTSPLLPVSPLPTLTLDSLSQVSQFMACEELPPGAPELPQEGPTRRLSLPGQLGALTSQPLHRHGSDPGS
Chain of Sodium-dependent serotonin transporter (P31645 whole entry): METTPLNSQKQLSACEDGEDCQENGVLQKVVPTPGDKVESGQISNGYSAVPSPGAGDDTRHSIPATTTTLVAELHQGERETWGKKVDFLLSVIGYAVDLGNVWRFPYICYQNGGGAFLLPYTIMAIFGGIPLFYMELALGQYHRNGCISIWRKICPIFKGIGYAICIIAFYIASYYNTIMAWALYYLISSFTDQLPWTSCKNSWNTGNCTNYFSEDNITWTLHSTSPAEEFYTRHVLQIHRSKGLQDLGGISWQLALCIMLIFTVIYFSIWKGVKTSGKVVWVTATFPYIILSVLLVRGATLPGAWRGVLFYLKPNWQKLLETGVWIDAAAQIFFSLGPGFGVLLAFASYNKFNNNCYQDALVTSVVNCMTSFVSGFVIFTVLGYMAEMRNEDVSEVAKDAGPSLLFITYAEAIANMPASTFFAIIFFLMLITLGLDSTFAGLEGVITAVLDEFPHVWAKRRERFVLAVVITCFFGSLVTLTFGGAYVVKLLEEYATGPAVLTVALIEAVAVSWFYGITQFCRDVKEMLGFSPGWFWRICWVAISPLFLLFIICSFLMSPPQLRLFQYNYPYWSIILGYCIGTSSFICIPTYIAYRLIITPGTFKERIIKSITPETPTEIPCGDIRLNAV
Chain of Sigma non-opioid intracellular receptor 1 (Q60492 whole entry): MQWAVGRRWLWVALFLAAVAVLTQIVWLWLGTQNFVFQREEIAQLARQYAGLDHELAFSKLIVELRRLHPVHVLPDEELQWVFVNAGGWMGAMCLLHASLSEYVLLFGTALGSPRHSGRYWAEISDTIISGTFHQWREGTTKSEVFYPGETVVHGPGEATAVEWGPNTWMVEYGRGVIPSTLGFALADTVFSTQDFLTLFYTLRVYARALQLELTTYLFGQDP

In the case of `Cc1ccccc1NC(=N)Nc1ccccc1C` [DITOLYLGUANIDINE], the pKi in [1] was 7.69.

`COC1OC2(CCNCC2)c2cnn(-c3ccccc3)c21` (stereo not drawn) returned an inhibition in [2] of 12%.

Consider `COC1OC2(CCN(Cc3ccccc3)CC2)c2cnn(-c3ccccc3)c21` (stereo not drawn), for which the pIC50 was less than 5.00 in [3]; less than 6.00 in [4]; less than 6.00 in assay [7]; less than 5.00 in [8]; 9.39 in assay [9]. In assay [5], this compound returned an inhibition of 17%. The pKi was 9.30 in assay [6] and 5.76 in assay [1].

With `CCCCN1CCC2(CC1)OC(OC)c1c2cnn1-c1ccccc1` (stereo not drawn), the pIC50 in assay [3] is less than 5.00; in assay [4] it was 5.91; in [7], less than 6.00; in assay [8], less than 5.00; in assay [9], 9.19. This compound also displayed an inhibition in assay [5] of 30%. For the same compound, the pKi in assay [1] was 5.98.

In turn, `c1ccc(-n2ncc3c2CCC3CCN2CCCCC2)cc1` (stereo not drawn) gave a pKi in assay [1] of 7.44.
